Test results published in patent US10858397B2, “Peptide inhibitors of telomerase translocation and therapeutic uses thereof” (THE MEDICAL COLLEGE OF WISCONSIN, INC., priority 2015, dated 2020).
Where a SMILES comes first, the peptide text is derived from it. Primed or numbered codes have the meaning given here. The star is where a group is joined. PEG12′ = C-terminal PEG12 polyethylene glycol (PEGylation) moiety, followed by a C-terminal amide; 5FAM = O=C1OC2(c3ccc(O)cc3Oc3cc(O)ccc32)c2ccc(C(=O)*)cc21

Experiments:
[1] = tested on: H1299 non-small cell lung carcinoma cells; test: Uptake of 5-FAM labeled peptide by H1299 cells (microscopy); type: cell-based, human; conditions: 50 or 100 μM, 8 h
Method: (§1) FIGS. 2A-2B. (A) Dissected human microvessels are shown. The top panels are brightfield images, while the bottom three panels are images of the same vessels under laser excitation with a filter to visualize emission from 5-FAM. Vessels were treated with 5-FAM labeled peptide (nucXTERT-W) at a 10 uM concentration for 8 hours (h), or left untreated (control). (B) H1299 non-small cell lung carcinoma cells were seeded onto slides and treated with 0, 50, or 100 μM 5-FAM labeled nucXTERT-W for 8 h. DAPI=blue; 5-FAM labeled peptide=green.
The NCI-H1299 cell line was used for the cell culture experiments described in this manuscript. Cells were cultured in RPMI (Invitrogen) supplemented with 10% fetal bovine serum (Sigma).
One of the first hurdles that required consideration when evaluating the ability of novel peptides to alter telomerase localization is their ability to be internalized by living tissues. nucXTERT was labeled with 5-carboxyfluorescein (5-FAM). Isolated human microvessels incubated with the 5-FAM labeled peptide were analyzed by microscopy. Robust signal is present in vessels pulsed with the peptide, while vessels not treated with peptide have no signal. […] Since peptide is taken up by vessels, it was possible to study the effect of peptide treatment on vessel physiology, using human microvessels as described in the methods. […]

[2] = tested on: human microvessels; test: Uptake of 5-FAM labeled peptide by isolated human microvessels (microscopy); conditions: 10 uM, 8 h
Method: as §1
Peptide synthesis was conducted by GeneMed Synthesis (San Antonio, Tex.). All peptide sequences were verified by mass spectrometry, and were only used at a purity of greater than 95%. Lyophilized peptides were stored at −20 degrees Celsius. Given the charge properties of the peptides used in these studies, phosphate buffered saline (PBS) was selected as the solvent of choice to dissolve all peptides used. […]
One of the first hurdles that required consideration when evaluating the ability of novel peptides to alter telomerase localization is their ability to be internalized by living tissues. nucXTERT was labeled with 5-carboxyfluorescein (5-FAM). Isolated human microvessels incubated with the 5-FAM labeled peptide were analyzed by microscopy. […]

[3] = tested on: human microvessels; test: Flow-mediated dilation (FMD) of isolated human microvessels with or without ANG II challenge; conditions: for protection of flow-mediated vasodilation from ANG II: overnight pre-treatment, ANG II 10 nM 30 min; for baseline vessel constriction, % of maximum diameter: after 10 minutes of ET-1 treatment
Method: (§2) Microvessels were dissected from surgical discard tissues, predominantly consisting of adipose. Only vessels with a diameter of less than 300 micrometers were selected for further study. All microvessels were obtained from discarded surgical tissues, in accordance with an Institutional Review Board approved protocols (PRO00000114, PRO00010828, PRO00001094) at the Medical College of Wisconsin, Milwaukee, Wis.
(§3) After dissection, vessels were incubated overnight in complete endothelial cell media, supplemented with 5% fetal bovine serum (Lonza) with or without peptides as described. Following overnight incubation, peptides were washed out and vessels were cannulated and transferred to physiological salt solution. A video microscopy setup enabled monitoring of vessels in real time. Vessels were pre-constricted with endothelin-1 (ET-1) at a dose range of 0.1-1 nM. Only vessels capable of constricting at least 20% from baseline were included in the study. Flow-mediated dilation (FMD) and Ach-induced dilation were then evaluated, followed by evaluation of endothelium-independent dilation to papaverin. After establishing this baseline, vessels were pre-constricted again with ET-1 and dilator curves repeated in the presence of Angiotensin II (ANG II), as described below.
FMD was evaluated by adjusting the heights of two reservoirs in equal and opposite directions to generate flow by altering vessel central pressure. After each change in pressure gradient, vessel diameter was measured and assessed using video microscopy. Prior to measuring FMD, all vessels studied were pre-constricted using endothelin-1.
(§4) Baseline vessel parameters, including ability to dilate in response to FMD, as described above were assessed. Following assessment, vessels were treated with ANG II at a final concentration of 10 nM for 30 minutes before FMD and response to ACh was re-assessed.

[4] = tested on: human microvessels; test: ACh-induced dilation of isolated human microvessels with or without ANG II challenge; conditions: for protection of ACh-induced vasodilation from ANG II: overnight pre-treatment, ANG II 10 nM 30 min
Method: as §2, §3, §4

[5] = tested on: human microvessels of healthy donors; test: Mechanism of FMD (L-NAME / PEG-Catalase) in microvessels from healthy (non-CAD) donors
Method: (§5) Live human microvessels were dissected from adipose from individuals with clinically confirmed coronary artery disease (CAD). Vessels were treated with nucXTERT in the presence of either vehicle or L-NAME or PEG-Catalase. Response to pressure gradient (flow) stimulus was evaluated. Microvessels from the adipose of healthy human donors was treated with either vehicle or mitoXTERT with or without NG-nitro-L-arginine methyl ester (L-NAME) or PEG-Catalase. The ability of the vessels to dilate in response to a pressure gradient (flow) was assessed.
FIGS. 7A-7C show dose titration of PEGylated nucXTERT-E in isolated vessel studies. nucXTERT with S→E substitution was PEGylated at the C-terminus to increase bio stability and cell permeability. Effective doses from 10 μM to 1 nM were tested. PEGylated peptide could be titrated down to 1 nM with vascular protective effects. […] N=3-4.
(§6) Dependence of vessels on NO versus hydrogen peroxide signaling in dilation was assessed using the pharmacologic agents Nw-nitro-L-arginine methyl ester (L-NAME; 100 μmol/L) and polyethylene glycol-catalase (PEG-catalase; 500 U/mL), respectively, where described.

[6] = tested on: ANG II induced endothelial dysfunction; test: In vivo ANG II infusion model of hypertension and endothelial dysfunction; set-up: species or system mice
Method: Mice were treated with commonly used stressors to induce hypertension and endothelial dysfunction. The fast pressor dose of ANG II (1000 ng/kg/min) was infused via osmotic mini-pump for 14 days. A subgroup of animals was co-treated with nucXTERT (30 μg/day via osmotic mini-pump) in addition to ANG II, for the same duration and using the same delivery system. Curves were compared to historic controls (vehicle). […] Smooth muscle-dependent dilation in response to vasodilator papaverin was not effected (data not shown). * P<0.05 vs. Vehicle one way ANOVA RM, N=5).
To test in vivo effects of nucXTERT mice were treated with commonly used stress to induce hypertension and endothelial dysfunction. The fast pressor dose of ANG II (1000 ng/kg/min) was infused via osmotic minipump for 14 days. A subgroup of animals was co-treated with nucXTERT (30 μg/day via osmotic mini pump) in addition to ANG II, for the same duration and using the same delivery system. Curves were compared to historic controls (vehicle). […] Smooth muscle dependent dilation to papaverin was not effected (data not shown).

[7] = tested on: human microvessels from individuals with coronary artery disease (CAD); test: Mechanism of FMD (L-NAME / PEG-Catalase) in microvessels from donors with coronary artery disease; conditions: vessels pretreated with peptide
Method: as §5, §6
At baseline, these vessels respond to vasodilatory stimuli through the use of H2O2 as a signaling mechanism to enable dilation. Treatment of vessels with PEG-Catalase, a scavenger of H2O2 effectively attenuates vasodilation. […] In vessels from subjects with CAD, H2O2 represents the dominant vasodilator.

[8] = 30 μg/day via osmotic mini pump, 14 days, ANG II 1000 ng/kg/min

What does the source list for `CC(C)C[C@H](NC(=O)[C@H](CO)NC(=O)[C@H](CCCNC(=N)N)NC(=O)[C@H](CO)NC(=O)[C@H](C)NC(=O)[C@H](CO)NC(=O)CNC(=O)CNC(=O)[C@H](CCCNC(=N)N)NC(=O)[C@H](CCCNC(=N)N)NC(=O)[C@H](CCCNC(=N)N)NC(=O)c1ccc2c(c1)C(=O)OC21c2ccc(O)cc2Oc2cc(O)ccc21)C(=O)N1CCC[C@H]1C(=O)N[C@@H](CC(C)C)C(=O)N1CCC[C@H]1C(=O)N[C@@H](CCCCN)C(=O)N[C@@H](CCCNC(=N)N)C(=O)N1CCC[C@H]1C(=O)N[C@@H](CCCNC(=N)N)C(=O)N[C@@H](CCCNC(=N)N)C(=O)O` [5-FAM labeled peptide] (5FAM-RRRGGSASRSLPLPKRPRR-OH; N-terminus and C-terminus assumed)?
uptake of labeled peptide into cells [1]: effectively traffics into the cell; 5-FAM signal in vessels pulsed with peptide (uptake by living tissue) [2]: Robust signal

Which results are given for `C/C(=C\C(=O)Nc1ccccc1C(=O)O)c1ccc2ccccc2c1` [BIBR1532, reference compound]?
vasodilation in response to flow stimulus ([3]; overnight treatment, no ANG II): continue to dilate in response to flow stimulus; vasodilation in response to acetylcholine ([4]; overnight treatment, no ANG II): effectively eliminates vasodilation in response to acetylcholine

With “Ac-CGGRRRGGEASRSLPLPKRPRR-peg12-amide (Ac-CGGRRRGGEASRSLPLPKRPRR-{PEG12′-NH2}) [PEGylated peptide, nucXTERT with S→E substitution PEGylated at the C-terminus]” as the compound, how does the “lowest dose with vascular protective effects (dose titration)” value ([3]; doses from 10 μM to 1 nM tested) read?
The value was 1 nM.

And the “protection of flow-mediated vasodilation from ANG II” value [3]?
Its value is “protected against ANG II induced endothelial dysfunction”.

What about the “mechanism of FMD in non-CAD vessels (L-NAME inhibitable)” value ([5]; non-CAD vessels) of the same compound?
Its value is “did not alter”.

With “MPRAPRCRAVRSLLRSHYRE (listed as Homo sapiens) [mitoXTERT, decoy peptide containing regions of the telomerase MLS]” as the compound, how does the “protection of flow-mediated vasodilation from ANG II” value [3] read?
Its value is “no protection of the endothelium from ANG II stress”.

What about the “mechanism of dilation in healthy vessels” value ([5]; treated with peptide, with or without L-NAME or PEG-Catalase) of the same compound?
Its value is “from NO-mediated dilation to H2O2-dependent dilation”.

And the “protection of ACh-induced vasodilation from ANG II” value [4]?
Its value is “no protection of the endothelium from ANG II stress”.

Which results are given for “RRRGGAASRSLPLPKRPRR (phospho-deficient nucXTERT-A)”?
baseline vessel constriction, % of maximum diameter [3]: 53±12%; protection of flow-mediated vasodilation from ANG II [3]: does not protect vessels from attenuation of vasodilator capacity; protection of ACh-induced vasodilation from ANG II [4]: does not protect vessels from attenuation of vasodilator capacity

What does the source list for “RRRGGEASRSLPLPKRPRR (phosphomimetic nucXTERT-E) [phosphomimetic containing a glutamic acid substitution at position 227]”?
baseline vessel constriction, % of maximum diameter [3]: 48±18%; protection of flow-mediated vasodilation from ANG II [3]: prevents ANG II-induced endothelial dysfunction; protection of ACh-induced vasodilation from ANG II [4]: prevents ANG II-induced endothelial dysfunction

With “RRRGGSASRSLPLPKRPRR (listed as Homo sapiens) [nucXTERT]” as the compound, how does the “FMD under ANG II” value [6, 8] read?
Its value is “prevented onset of ANG II induced endothelial dysfunction”.

And the “agonist (ACh) induced endothelium-dependent dilation under ANG II” value [6, 8]?
Its value is “prevented onset of ANG II induced endothelial dysfunction”.

And the “smooth muscle dependent dilation to papaverin” value ([6]; data not shown)?
The value was “not effected”.

What about the “protection of flow-mediated vasodilation from ANG II” value [3] of the same compound?
The value was “not impacted by ANG II treatment”.

And the “protection of ACh-induced vasodilation from ANG II” value [4]?
The value was “not impacted by ANG II treatment”.

And the “effect of PEG-Catalase on dilation responses in CAD vessels” value [7]?
Its value is “no longer inhibits dilation responses”.

And the “main mechanism of FMD in CAD vessels” value [7]?
The value was “NO is restored as the main mechanism of FMD”.
